Consider 68 compounds from patent US7879846B2, “Serine hydrolase inhibitors” (Kyorin Pharmaceutical Co.., Ltd., priority 2006, dated 2011).

Some results are limits rather than exact numbers.

For the test, the target named is T1, Human sputum neutrophil elastase (Homo sapiens, UniProt P08246).
T1 construct: purchased Elastin Products Co; host or cells: human sputum (natural source)
T1 sequence (P08246 30-247 limits assumed): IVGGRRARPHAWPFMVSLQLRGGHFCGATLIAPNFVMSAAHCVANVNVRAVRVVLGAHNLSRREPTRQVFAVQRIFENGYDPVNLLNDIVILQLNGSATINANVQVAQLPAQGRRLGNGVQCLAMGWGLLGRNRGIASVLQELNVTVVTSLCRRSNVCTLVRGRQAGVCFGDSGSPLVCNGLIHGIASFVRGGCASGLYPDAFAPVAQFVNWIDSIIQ
The experiment in a line: Inhibitor IC50 against human neutrophil elastase (fluorogenic MeOSuc-AAPV-AMC substrate). In kind it is biochemical. The settings on record: 20 min preincubation, read-out: HNE IC50. Here is the method:
Determination of Inhibitor IC50 Values Against Human Neutrophil Elastase
Human sputum neutrophil elastase (Elastin Products Co.) was diluted into Assay Buffer A (200 mM Tris pH 7.4, 1 mg/ml BSA) to a working concentration of 0.55 U/ml. […] DMSO alone was used as the negative control. MeOSuc-AAPV-AMC (Bachem) substrate was dissolved in DMSO to 20 mM and further diluted to 1 mM in Assay Buffer A immediately before use. Substrate was added to the elastase assay at a final concentration of 1×10^−4 M. The reaction was allowed to proceed for 20 minutes at room temperature and then quenched with acetic acid at a final concentration of 3% (v/v). […] Fluorescence intensity versus inhibitor concentration was plotted and fit to the Hill equation to quantify IC50 values.
As a reminder, the IC50 is the concentration that inhibits the measured activity by half. `CCc1cc(OC)cc2nc(-c3cccnc3N3CC[C@H](N4CCNC(=O)C4)C3)oc(=O)c12` [Compound 261]: the IC50 was under 15 nM.

On to `COc1ccc(-c2nc3cccc(C)c3c(=O)o2)c(OC)n1` [Compound 22], for which the IC50 was under 15 nM.

For the compound `CCc1cc(OC)cc2nc(-c3cccnc3N3CCN(c4nccs4)CC3)oc(=O)c12` [Compound 250], the IC50 was under 15 nM.

For `CCc1cc(OC)cc2nc(-c3cccnc3N3CC[C@H](N4CCS(=O)(=O)CC4)C3)oc(=O)c12` [Compound 264], the IC50 is under 15 nM.

With `CCCc1cc(OC)cc2nc(-c3cccnc3N3CC[C@@H](N(C)C)C3)oc(=O)c12` [Compound 149], the IC50 lay in the range of 61 to 150 nM.

Regarding `CCc1cc(OC)cc2nc(-c3cccnc3N3CCCC(N(C)C)C3)oc(=O)c12` (centres unmarked) [Compound 212], the IC50 is 16 to 60 nM.

As for `C#CCCN1CCN(c2ncccc2-c2nc3cc(OC)cc(CC)c3c(=O)o2)CC1` [Compound 228], the IC50 is under 15 nM.

As for `C=CCN1CCN(c2ncccc2-c2nc3cc(OC)cc(CC)c3c(=O)o2)CC1` [Compound 193], the IC50 is under 15 nM.

On to `CCc1cc(OC)cc2nc(-c3cccnc3N3CC4CC3CN4CC)oc(=O)c12` (centres unmarked) [Compound 254], for which the IC50 fell in the range of 16 to 60 nM.

As for `CCc1cc(OC)cc2nc(-c3cccnc3N(C)C3CCN(C)C3)oc(=O)c12` (centres unmarked) [Compound 138], the IC50 fell in the range of 16 to 60 nM.

In the case of `COc1cccc2nc(-c3cccnc3-n3ccnc3)oc(=O)c12` [Compound 66], the IC50 is over 150 nM.

With `CCc1cc(OC)cc2nc(-c3cccnc3N3CCC(N(C)C)CC3)oc(=O)c12` [Compound 220], the IC50 lay within 16 to 60 nM.

For `Cc1cccc2nc(-c3cccnc3N3CCN(CCN4CCOCC4)CC3)oc(=O)c12` [Compound 179], the IC50 was 16 to 60 nM.

`CCc1cccc2nc(-c3cccnc3-n3cc[n+](C)c3)oc(=O)c12` [Compound 84]: the IC50 was 16 to 60 nM.

In the case of `O=c1oc(-c2ccccn2)nc2ccccc12` [Compound 17], the IC50 was over 150 nM.

In the case of `COc1cc(C2CCC2)c2c(=O)oc(-c3cccnc3N3CCN(CCN(C)C)CC3)nc2c1` [Compound 186], the IC50 lay in the range of 61 to 150 nM.

Consider `CCc1cc(OC)cc2nc(-c3cccnc3N(CC)CCCN3CCOCC3)oc(=O)c12` [Compound 238], for which the IC50 was under 15 nM.

Turning to `COc1cc(C2CC2)c2c(=O)oc(-c3cccnc3N3CC[C@@H](N(C)C)C3)nc2c1` [Compound 164], the IC50 is 61 to 150 nM.

`Cc1cccc2nc(-c3cccnc3OCCOCCOCCOCc3ccccc3)oc(=O)c12` [Compound 56]: the IC50 is over 150 nM.

As for `CCCc1cc(OC)cc2nc(-c3cccnc3N3CCN(CCN(C)C)CC3)oc(=O)c12` [Compound 158], the half-maximal inhibitory concentration (IC50) fell in the range of 16 to 60 nM.

As to `Cc1cccc2nc(-c3cccnc3N3CC[C@@H](N(C)C)C3)oc(=O)c12` [Compound 178], the IC50 is 16 to 60 nM.

With `CCc1cccc2nc(-c3cccnc3N3CCC(N(C)C)C3)oc(=O)c12` (centres unmarked) [Compound 85], the IC50 is under 15 nM.

Consider `CCc1cc(OC)cc2nc(-c3cccnc3N3CCN(c4ccccn4)CC3)oc(=O)c12` [Compound 253], for which the IC50 was under 15 nM.

For the compound `C#CCN1CCN(c2ncccc2-c2nc3cccc(CC)c3c(=O)o2)CC1` [Compound 234], the IC50 is under 15 nM.

In the case of `COc1cc(C(C)C)c2c(=O)oc(-c3cccnc3N3CC[C@H](N(C)C)C3)nc2c1` [Compound 111], the IC50 fell in the range of 61 to 150 nM.

Consider `CCc1cc(OC)cc2nc(-c3cccnc3N3CCC(CCCC(=O)O)CC3)oc(=O)c12` [Compound 225], for which the IC50 lay within 16 to 60 nM.

Take `CCc1cc(OC)cc2nc(-c3cccnc3N3CC[C@@H](N(C)CCOC)C3)oc(=O)c12` [Compound 265]: the IC50 is under 15 nM.

On to `CCc1cc(OC)cc2nc(-c3cccnc3N3CCC(S(=O)(=O)O)CC3)oc(=O)c12` [Compound 209], for which the IC50 was in the range of 16 to 60 nM.

Regarding `CCc1cc(OC)cc2nc(-c3cccnc3N3CCN(CC4CCCO4)CC3)oc(=O)c12` (centres unmarked) [Compound 218], the IC50 was under 15 nM.

Regarding `CCc1cc(OC)cc2nc(-c3cccnc3N3CCC(N(CC)CC)C3)oc(=O)c12` (centres unmarked) [Compound 189], the IC50 was under 15 nM.

Turning to `CCc1cccc2nc(-c3cccnc3N3CC[N+](C)(CCOC)CC3)oc(=O)c12` [Compound 96], the concentration for half-maximal inhibition (IC50) is under 15 nM.

`COc1cccc2nc(-c3ncccc3-n3ccnc3)oc(=O)c12` [Compound 69]: the IC50 is over 150 nM.

Regarding `CCCc1cc(OC)cc2nc(-c3cccnc3N3CCCN(C)CC3)oc(=O)c12` [Compound 156], the IC50 lay in the range of 61 to 150 nM.

On to `Cc1cccc2nc(-c3cccnc3OCCN(C)C)oc(=O)c12` [Compound 61], for which the IC50 was over 150 nM.

Take `CCc1cc(OC)cc2nc(-c3cccnc3N3CCC(CCN4CCCC4)CC3)oc(=O)c12` [Compound 257]: the IC50 was under 15 nM.

As to `CCc1cc(OC)cc2nc(-c3cccnc3N3CCC(N4CCCCC4)CC3)oc(=O)c12` [Compound 216], the IC50 was under 15 nM.

With `CCc1cccc2nc(-c3cccnc3N3CC[N+](C)(C)CC3)oc(=O)c12` [Compound 95], the IC50 was under 15 nM.

Consider `COc1cc(C2CCC2)c2c(=O)oc(-c3cccnc3N3CC[C@H](N(C)C)C3)nc2c1` [Compound 176], for which the IC50 was in the range of 61 to 150 nM.

As for `CCc1cccc2nc(-c3cccnc3N3CCCN(C)CC3)oc(=O)c12` [Compound 92], the IC50 was under 15 nM.

Consider `CCc1cccc2nc(-c3cccnc3N3CCN(CCC#N)CC3)oc(=O)c12` [Compound 93], for which the half-inhibitory concentration (IC50) is under 15 nM.

Take `CCc1cc(OC)cc2nc(-c3cccnc3N3CC[N+](C)(CC4OCCO4)CC3)oc(=O)c12` [Compound 231]: the concentration for half-maximal inhibition (IC50) was under 15 nM.

With `COc1cc(C2CCC2)c2c(=O)oc(-c3cccnc3N3CC[C@@H](N(C)C)C3)nc2c1` [Compound 175], the IC50 was over 150 nM.

For the compound `CCCN1CCN(c2ncccc2-c2nc3cc(OC)cc(CC)c3c(=O)o2)CC1` [Compound 222], the concentration for half-maximal inhibition (IC50) fell in the range of 16 to 60 nM.

As for `COc1cc(C2CCC2)c2c(=O)oc(-c3cccnc3N3CCN(CCN4CCOCC4)CC3)nc2c1` [Compound 187], the IC50 was over 150 nM.

On to `CCc1cccc2nc(-c3cccnc3N3CC[N+](C)(CC4CC4)CC3)oc(=O)c12` [Compound 103], for which the IC50 is under 15 nM.

Regarding `CCc1cccc2nc(-c3cccnc3N3CCN(CCOC)CC3)oc(=O)c12` [Compound 89], the IC50 is under 15 nM.

On to `CCCc1cc(OC)cc2nc(-c3cccnc3N3CC[C@H](N(C)C)C3)oc(=O)c12` [Compound 148], for which the half-inhibitory concentration (IC50) lay in the range of 16 to 60 nM.

Regarding `CCc1cc(OC)cc2nc(-c3cccnc3N3CCC(CN(C)C)CC3)oc(=O)c12` [Compound 246], the IC50 lay in the range of 16 to 60 nM.

With `CSc1ncccc1-c1nc2cccc(C)c2c(=O)o1` [Compound 23], the IC50 was 61 to 150 nM.

`CCc1cc(OC)cc2nc(-c3cccnc3N3CCC(O)CC3)oc(=O)c12` [Compound 214]: the IC50 was under 15 nM.

In the case of `CCOCCN1CCN(c2ncccc2-c2nc3cc(OC)cc(CC)c3c(=O)o2)CC1` [Compound 203], the 50% inhibitory concentration (IC50) was under 15 nM.

As for `CCc1cc(OC)cc2nc(-c3cccnc3N(C)CC3CCN(C)C3)oc(=O)c12` (centres unmarked) [Compound 244], the IC50 is under 15 nM.

Regarding `COc1cc(C(C)C)c2c(=O)oc(-c3cccnc3N(C)CCN(C)C)nc2c1` [Compound 118], the IC50 lay within 61 to 150 nM.

Regarding `CCc1cc(OC)cc2nc(-c3cccnc3N(C)CCN(C)C)oc(=O)c12` [Compound 239], the IC50 is under 15 nM.

`COc1cc(C(C)C)c2c(=O)oc(-c3cnn(C)c3N(C)CCN(C)C)nc2c1` [Compound 124]: the IC50 is over 150 nM.

Consider `CCc1cccc2nc(-c3cccnc3-n3cc[n+](Cc4ccc(Cl)cc4)c3)oc(=O)c12` [Compound 94], for which the IC50 fell in the range of 16 to 60 nM.

For `CCc1cc(OC)cc2nc(-c3cccnc3N3CCC(N4CCCC4)CC3)oc(=O)c12` [Compound 215], the IC50 was under 15 nM.

Regarding `O=c1oc(-c2cccs2)nc2ccccc12` [Compound 8], the IC50 is over 150 nM.

`Cc1cccc2nc(-c3cccnc3OCCOCCOCCOCCOc3ncccc3C(=O)O)oc(=O)c12` [Compound 58]: the IC50 fell in the range of 61 to 150 nM.

For the compound `CCc1cc(OC)cc2nc(-c3cccnc3N3CC[C@H](N(CCO)CCO)C3)oc(=O)c12` [Compound 263], the half-inhibitory concentration (IC50) is under 15 nM.

As for `CCc1cccc2nc(-c3cccnc3N3CCN(CCN4CCOCC4)CC3)oc(=O)c12` [Compound 152], the IC50 is under 15 nM.

On to `COc1cc(C2CCC2)c2c(=O)oc(-c3cccnc3N3CCC[C@H](C(=O)O)C3)nc2c1` [Compound 174], for which the IC50 is over 150 nM.

For `CCc1cc(OC)cc2nc(-c3cccnc3N3CC[C@@H](N4CCOCC4)C3)oc(=O)c12` [Compound 267], the IC50 is under 15 nM.

For `C=CCN1C[C@@H](C)N(c2ncccc2-c2nc3cc(OC)cc(CC)c3c(=O)o2)C[C@H]1C` [Compound 217], the IC50 was under 15 nM.

`C#CCOC(=O)NCCN1CCN(c2ncccc2-c2nc3cc(OC)cc(CC)c3c(=O)o2)CC1` [Compound 227]: the IC50 is 16 to 60 nM.

For the compound `CCc1cc(OC)cc2nc(-c3cccnc3N3C[C@H](CNC4CC4)[C@@H](C)C3)oc(=O)c12` [Compound 260], the IC50 was 16 to 60 nM.

Regarding `COc1cc(C(C)C)c2c(=O)oc(-c3cccnc3N3CC[N+](C)(CC(N)=O)CC3)nc2c1` [Compound 129], the concentration for half-maximal inhibition (IC50) was 61 to 150 nM.

Turning to `CCc1cc(OC)cc2nc(-c3cccnc3N3CC[C@@H](N(CCO)CCO)C3)oc(=O)c12` [Compound 268], the IC50 was under 15 nM.
